Laboratory results as given in patent US11529341B2, “Bicyclic compounds as inhibitors of PD1/PD-L1 interaction/activation” (JUBILANT PRODEL LLC, priority 2018, dated 2022).

The compounds below were run against T1, PD-1/PD-L1 interaction (Homo sapiens, UniProt Q9NZQ7) (assay: PD-1/PD-L1 Homogenous Time-Resolved Fluorescence (HTRF) binding assay (CisBio kit)). Conditions: Biochemical PD1/PD-L1 inhibition.
T1 construct: Tag1 (undisclosed kit tag); purchased CisBio 63ADK000CPAPEG
Description: PD-L1 Enzyme Assay: Homogenous Time-Resolved Fluorescence (HTRF) Binding Assay
All binding studies were performed using PD-1/PD-L1 Binding Assay Kit from CisBio (Catalog #63ADK000CPAPEG), according to the manufacturer's protocol. The interaction between Tag1-PD-1 and […] was detected by anti-Tag1-Eu^3+ (HTRF donor) and anti-Tag2-XL665 (HTRF acceptor). When the donor and acceptor antibodies were brought to close proximity due to PD-1 and PD-L1 binding, excitation of the donor antibody triggered fluorescent resonance energy transfer (FRET) towards the acceptor antibody, which in turn emitted specifically at 665 nm. This specific signal is positively proportional to PD-1/PD-L1 interaction. The compounds blocking PD-1/PD-L1 interaction will cause a reduction in HTRF signal. The necessary reagents were mixed in the following order: 2 μl compounds (or diluents buffer), 4 μl PD-L1 protein, 4 μl PD-1 protein. After an incubation of 15 minutes, 5 μl of anti-Tag1-Eu^3+ and 5 μl of anti-Tag2-XL665 were added. The plate was sealed and incubated at room temperature for 1 h. The fluorescence emission was read at two different wavelengths (665 nm and 620 nm) on a BMG PheraStar® multi-plate reader. Results were calculated from the 665 nm and 620 nm fluorescence signal and expressed in HTRF ratio=(665 nm/620 nm)×10^4.

T1 sequence (Q9NZQ7 19-238 limits assumed): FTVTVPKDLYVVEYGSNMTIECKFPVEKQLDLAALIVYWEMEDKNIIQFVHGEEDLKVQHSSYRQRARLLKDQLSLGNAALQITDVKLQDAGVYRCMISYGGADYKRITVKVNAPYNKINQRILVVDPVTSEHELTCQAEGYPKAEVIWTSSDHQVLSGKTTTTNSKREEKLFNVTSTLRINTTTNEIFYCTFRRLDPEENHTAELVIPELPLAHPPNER

| Structure (SMILES) | IC50 |
| --- | --- |
| COc1cc(OCc2cccc(-c3ccccc3)c2C#N)c2c(c1CN1CCOC[C@H]1C(=O)O)CCC2 [Compound 59, (S)-4-((7-((2-cyano-[1,1′-biphenyl]-3-yl)methoxy)-5-methoxy-2,3-dihydro-1H-inden-4-yl)methyl)morpholine-3-carboxylic acid] | < 100 nM |
| CC(=O)N(C)CCNCc1c(OCc2cccc(C#N)c2)cc(OCc2cccc(-c3ccccc3)c2C)c2c1CCC2 [Compound 13, N-(2-(((5-((3-cyanobenzyl)oxy)-7-((2-methyl-[1,1′-biphenyl]-3-yl)methoxy)-2,3-dihydro-1H-inden-4-yl)methyl)amino)ethyl)-N-methylacetamide] | < 100 nM |
| Cc1c(COc2ccc(CN3CCCC[C@H]3C(=O)O)c3c2CCCC3)cccc1-c1ccccc1 [Compound 27, 1-((4-((2-methyl-[1,1′-biphenyl]-3-yl)methoxy)-5,6,7,8-tetrahydronaphthalen-1-yl)methyl)piperidine-2-carboxylic acid] | 100 to 500 nM |
| COC(=O)C12CCC(NCc3c(OCc4cccc(C#N)c4)cc(OCc4cccc(-c5ccccc5)c4C)c4c3CCC4)(CC1)CC2 [Compound 73, methyl 4-(((5-((3-cyanobenzyl)oxy)-7-((2-methyl-[1,1′-biphenyl]-3-yl)methoxy)-2,3-dihydro-1H-inden-4-yl)methyl)amino)bicyclo[2.2.2]octane-1-carboxylate] | 100 to 500 nM |
| Cc1c(COc2ccc(CNC(CO)(CO)CO)c3c2CCC3)cccc1-c1ccccc1 [Compound 18, 2-(hydroxymethyl)-2-(((7-((2-methyl-[1,1′-biphenyl]-3-yl)methoxy)-2,3-dihydro-1H-inden-4-yl)methyl)amino)propane-1,3-diol] | 100 to 500 nM |
| COc1cc(OCc2cccc(-c3ccccc3)c2C(F)(F)F)c2c(c1CN1CCCC[C@H]1C(=O)O)CCC2 [Compound 75, (S)-1-((5-methoxy-7-((2-(trifluoromethyl)-[1,1′-biphenyl]-3-yl)methoxy)-2,3-dihydro-1H-inden-4-yl)methyl)piperidine-2-carboxylic acid] | > 500 nM |
| COc1cc(OCc2cccc(-c3cccc(OCCCN4CCC(F)(F)C4)c3C)c2C)c2c(c1CN1CCCC[C@H]1C(=O)O)CCC2 [Compound 7, (S)-1-((7-((3′-(3-(3,3-difluoropyrrolidin-1-yl)propoxy)-2,2′-dimethyl-[1,1′-biphenyl]-3-yl)methoxy)-5-methoxy-2,3-dihydro-1H-inden-4-yl)methyl)piperidine-2-carboxylic acid] | > 500 nM |
| CC(=O)NCCNCc1ccc(OCc2cccc(-c3ccccc3)c2C)c2c1CCC2 [Compound 16, N-(2-(((7-((2-methyl-[1,1′-biphenyl]-3-yl)methoxy)-2,3-dihydro-1H-inden-4-yl)methyl)amino)ethyl)acetamide] | > 500 nM |
| COc1cc(OCc2cccc(-c3ccccc3)c2C#N)c2c(c1CN1CC3(CC3)C[C@H]1C(=O)O)CCC2 [Compound 61, (S)-5-((7-((2-cyano-[1,1′-biphenyl]-3-yl)methoxy)-5-methoxy-2,3-dihydro-1H-inden-4-yl)methyl)-5-azaspiro[2.4]heptane-6-carboxylic acid] | < 100 nM |
| Cc1c(COc2cc(OC[C@H]3C[C@H]3C(=O)O)c(CN3CCCC[C@H]3C(=O)O)c3c2CCC3)cccc1-c1ccccc1 [Compound 82, (S)-1-((5-(((1S,2R)-2-carboxycyclopropyl)methoxy)-7-((2-methyl-[1,1′-biphenyl]-3-yl)methoxy)-2,3-dihydro-1H-inden-4-yl)methyl)piperidine-2-carboxylic acid] | 100 to 500 nM |
| Cc1c(COc2ccc(CN(C)CC(=O)O)c3c2CCC3)cccc1-c1ccccc1 [Compound 22, N-methyl-N-((7-((2-methyl-[1,1′-biphenyl]-3-yl)methoxy)-2,3-dihydro-1H-inden-4-yl)methyl)glycine] | 100 to 500 nM |
| Cc1c(COc2c(Cl)cc(CN3C[C@H](O)C[C@H]3C(=O)O)c3c2CCC3)cccc1-c1ccccc1 [Compound 31, (2S,4R)-1-((6-chloro-7-((2-methyl-[1,1′-biphenyl]-3-yl)methoxy)-2,3-dihydro-1H-inden-4-yl)methyl)-4-hydroxypyrrolidine-2-carboxylic acid] | 100 to 500 nM |
| COc1cc(OCc2cccc(-c3ccccc3)c2C#N)c2c(c1CNCC(=O)O)CCC2 [Compound 60, ((7-((2-cyano-[1,1′-biphenyl]-3-yl)methoxy)-5-methoxy-2,3-dihydro-1H-inden-4-yl)methyl)glycine] | < 100 nM |
| Cc1c(COc2cc(OCc3cncc(C#N)c3)c(CN3CCC[C@@H]4C[C@@]43C(=O)O)c3c2CCC3)cccc1-c1ccccc1 (racemic) [Compound 51, rac-(1R,6S)-2-((5-((5-cyanopyridin-3-yl)methoxy)-7-((2-methyl-[1,1′-biphenyl]-3-yl)methoxy)-2,3-dihydro-1H-inden-4-yl)methyl)-2-azabicyclo[4.1.0]heptane-1-carboxylic acid] | < 100 nM |
| Cc1c(COc2cc(OCc3cncc(C#N)c3)c(CN3CC4(CC4)C[C@H]3C(=O)O)c3c2CCC3)cccc1-c1ccccc1 [Compound 52, (S)-5-((5-((5-cyanopyridin-3-yl)methoxy)-7-((2-methyl-[1,1′-biphenyl]-3-yl)methoxy)-2,3-dihydro-1H-inden-4-yl)methyl)-5-azaspiro[2.4]heptane-6-carboxylic acid] | < 100 nM |
| Cc1c(COc2cc(OCc3cccc(C(N)=O)c3)c(CN3CCCC[C@H]3C(=O)O)c3c2CCC3)cccc1-c1ccccc1 [Compound 88, (S)-1-((5-((3-carbamoylbenzyl)oxy)-7-((2-methyl-[1,1′-biphenyl]-3-yl)methoxy)-2,3-dihydro-1H-inden-4-yl)methyl)piperidine-2-carboxylic acid] | 100 to 500 nM |
| COc1cc(OCc2cccc(-c3ccc4c(c3)OCCO4)c2C)c2c(c1CN1C[C@H](O)C[C@H]1C(=O)O)CCC2 [Compound 85, (2S,4R)-1-((7-((3-(2,3-dihydrobenzo[b][1,4]dioxin-6-yl)-2-methylbenzyl)oxy)-5-methoxy-2,3-dihydro-1H-inden-4-yl)methyl)-4-hydroxypyrrolidine-2-carboxylic acid] | 100 to 500 nM |
| COc1cc(OCc2cccc(-c3ccccc3)c2C)c2c(c1CN1CC3(CC3)C[C@H]1C(=O)O)CCC2 [Compound 11, (S)-5-((5-methoxy-7-((2-methyl-[1,1′-biphenyl]-3-yl)methoxy)-2,3-dihydro-1H-inden-4-yl)methyl)-5-azaspiro[2.4]heptane-6-carboxylic acid] | < 100 nM |
| Cc1c(COc2cc(OCc3cncc(F)c3)c(CN3CCCC[C@H]3C(=O)O)c3c2CCC3)cccc1-c1ccccc1 [Compound 9, (S)-1-((5-((5-fluoropyridin-3-yl)methoxy)-7-((2-methyl-[1,1′-biphenyl]-3-yl)methoxy)-2,3-dihydro-1H-inden-4-yl)methyl)piperidine-2-carboxylic acid] | < 100 nM |
| CC(=O)NCCNCc1c(OCc2cncc(F)c2)cc(OCc2cccc(-c3ccccc3)c2C)c2c1CCC2 [Compound 10, N-(2-(((5-((5-fluoropyridin-3-yl)methoxy)-7-((2-methyl-[1,1′-biphenyl]-3-yl)methoxy)-2,3-dihydro-1H-inden-4-yl)methyl)amino)ethyl)acetamide] | < 100 nM |
| COc1cc(OCc2cccc(-c3cccc(OCCCN4CCC(F)(F)C4)c3C)c2C)c2c(c1CNCCNC(C)=O)CCC2 [Compound 32, N-(2-(((7-((3′-(3-(3,3-difluoropyrrolidin-1-yl)propoxy)-2,2′-dimethyl-[1,1′-biphenyl]-3-yl)methoxy)-5-methoxy-2,3-dihydro-1H-inden-4-yl)methyl)amino)ethyl)acetamide] | 100 to 500 nM |
| COc1cc(OCc2cccc(-c3ccccc3)c2C)c2c(c1CN1CCCC[C@H]1C(=O)O)CCC2 [Compound 26, (S)-1-((5-methoxy-7-((2-methyl-[1,1′-biphenyl]-3-yl)methoxy)-2,3-dihydro-1H-inden-4-yl)methyl)piperidine-2-carboxylic acid] | 100 to 500 nM |
| COc1cc(OCc2cccc(-c3ccccc3)c2C#N)c2c(c1CN1CCCC[C@H]1C(=O)O)CCC2 [Compound 55, (S)-1-((7-((2-cyano-[1,1′-biphenyl]-3-yl)methoxy)-5-methoxy-2,3-dihydro-1H-inden-4-yl)methyl)piperidine-2-carboxylic acid] | < 100 nM |
| N#Cc1cncc(COc2cc(OCc3cccc(-c4ccccc4)c3C#N)c3c(c2CN2CCC[C@@H]4C[C@@]42C(=O)O)CCC3)c1 (racemic) [Compound 72, rac-(1R,6S)-2-((7-((2-cyano-[1,1′-biphenyl]-3-yl)methoxy)-5-((5-cyanopyridin-3-yl)methoxy)-2,3-dihydro-1H-inden-4-yl)methyl)-2-azabicyclo[4.1.0]heptane-1-carboxylic acid] | < 100 nM |
| Cc1c(COc2cc(OCc3cncc(C#N)c3)c(CN3CCOC[C@H]3C(=O)O)c3c2CCC3)cccc1-c1ccccc1 [Compound 50, (S)-4-((5-((5-cyanopyridin-3-yl)methoxy)-7-((2-methyl-[1,1′-biphenyl]-3-yl)methoxy)-2,3-dihydro-1H-inden-4-yl)methyl)morpholine-3-carboxylicacid] | < 100 nM |
